Results from patent US8603967B2, “Carrier peptide fragment and use thereof” (Toagosei Co., Ltd., priority 2009, dated 2013).

Test system: Human neonate fibroblasts (ATCC cell line CCD-1079sk)
Assay: Evaluation of cell membrane permeability function (fluorescence antibody technique, confocal microscopy)
Assay type: cell-based
Details: 3.5 μg/mL in liquid culture medium, cultured 2 hours, FIG. 2
Protocol: Human neonate fibroblasts (ATCC cell line CCD-1079sk) were used as the eukaryotic cells, and the cell membrane permeability capability of the 2 samples (constructs for transferring a foreign substance) obtained in Example 1 above was investigated.
More specifically, approximately 2×10^4 cells were cultured on a collagen-coated S-well slide overnight at 37° C. in 5% CO2 using a liquid culture medium (Eagle's MEM medium: comprising 0.1 mM NeAA, 1 mM sodium pyruvate, Earle's BSS (product of GIBCO) with 10% FBS (product of GIBCO).
The purified polypeptides obtained above were added to the cell culture (1.5 μg/mL of the polypeptide of Sample No. 1 and 3.5 μg/mL of the polypeptide of Sample No. 2), and culturing was continued for another 2 hours.
Then the supernatant was removed, the abovementioned D-PBS was added, and the cells were rinsed 3 times therewith on ice. Next, ice-cold methanol was added and the samples were let stand for 10 min at −20° C. to fix the cells. Then the methanol was removed, PBS solution containing 5% normal goat serum (product of MBL) was added, and blocking was carried out at room temperature for 1 hour. […]

For “Sample No. 2: Fusion polypeptide (SEQ ID NO: 7): Met, NoLS carrier KKRTLRKNDRKKR fused to N-terminal end of GFP, C-terminal polyhistidine tag”, the “location of the polypeptide transferred into the cells (nuclear translocation)” value (anti-GFP antibody staining merged with DAPI) was “transferred (translocated) to the nucleus and localized therein” and the “transfer of the polypeptide into the cells” value (anti-GFP antibody staining) was “transfer of the polypeptide into the cells can be seen”.
